In PubChem BioAssay (NCI):
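96-well plates; 48 h exposure; 5 concentrations. Endpoints by linear interpolation between flanking doses. Not reached: highest tested concentration assigned. GI50 is the concentration that inhibits growth by half. The concentration for full growth arrest is given as TGI.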

Key:
Test in all cases: NCI anticancer screen, dose series, 48 h; in the data active means GI50 below about 0.43 µM; inactive means the rest
LOX IMVI melanoma = tested on: LOX IMVI melanoma
CCRF-CEM leukemia = tested on: CCRF-CEM leukemia
HCT-116 colon = tested on: HCT-116 colon
OVCAR-8 ovarian = tested on: OVCAR-8 ovarian
ACHN renal = tested on: ACHN renal
M14 melanoma = tested on: M14 melanoma
NCI-H23 lung = tested on: NCI-H23 lung
SK-MEL-28 melanoma = tested on: SK-MEL-28 melanoma
IGROV1 ovarian = tested on: IGROV1 ovarian
MALME-3M melanoma = tested on: MALME-3M melanoma
UACC-257 melanoma = tested on: UACC-257 melanoma
SF-268 CNS = tested on: SF-268 CNS
OVCAR-4 ovarian = tested on: OVCAR-4 ovarian
CAKI-1 renal = tested on: CAKI-1 renal
DLD-1 colon = tested on: DLD-1 colon
OVCAR-5 ovarian = tested on: OVCAR-5 ovarian
DMS 114 small cell lung = tested on: DMS 114 small cell lung
SK-MEL-5 melanoma = tested on: SK-MEL-5 melanoma
A498 renal = tested on: A498 renal
SW-620 colon = tested on: SW-620 colon
LXFL 529 NSCLC = tested on: LXFL 529 NSCLC
UO-31 renal = tested on: UO-31 renal
HOP-18 NSCLC = tested on: HOP-18 NSCLC
SK-MEL-2 melanoma = tested on: SK-MEL-2 melanoma
SN12C renal = tested on: SN12C renal
NCI-H460 lung = tested on: NCI-H460 lung
KM12 colon = tested on: KM12 colon
SNB-75 CNS = tested on: SNB-75 CNS
DMS 273 small cell lung = tested on: DMS 273 small cell lung
SK-OV-3 ovarian = tested on: SK-OV-3 ovarian
U251 CNS = tested on: U251 CNS
HCT-15 colon = tested on: HCT-15 colon
SF-539 CNS = tested on: SF-539 CNS
UACC-62 melanoma = tested on: UACC-62 melanoma
HCC-2998 colon = tested on: HCC-2998 colon
A549 NSCLC = tested on: A549 NSCLC
EKVX NSCLC = tested on: EKVX NSCLC
SNB-19 CNS = tested on: SNB-19 CNS
KM20L2 colon = tested on: KM20L2 colon
SF-295 CNS = tested on: SF-295 CNS
HOP-92 NSCLC = tested on: HOP-92 NSCLC
OVCAR-3 ovarian = tested on: OVCAR-3 ovarian
786-0 renal = tested on: 786-0 renal
K-562 leukemia = tested on: K-562 leukemia
SNB-78 CNS = tested on: SNB-78 CNS
HT29 colon = tested on: HT29 colon
SR leukemia = tested on: SR leukemia
TK-10 renal = tested on: TK-10 renal
NCI-H522 lung = tested on: NCI-H522 lung
XF 498 CNS = tested on: XF 498 CNS
RXF 393 renal = tested on: RXF 393 renal
MOLT-4 leukemia = tested on: MOLT-4 leukemia
M19-MEL melanoma = tested on: M19-MEL melanoma
NCI-H226 lung = tested on: NCI-H226 lung
HL-60(TB) leukemia = tested on: HL-60(TB) leukemia
RPMI-8226 leukemia = tested on: RPMI-8226 leukemia
COLO 205 colon = tested on: COLO 205 colon
HOP-62 NSCLC = tested on: HOP-62 NSCLC

O=C(/C=C(\O)C(=O)O)/C=C(\O)c1ccccc1
inactive: GI50 (LOX IMVI melanoma) > 1000 nM | GI50 (CCRF-CEM leukemia) > 1000 nM | GI50 (HCT-116 colon) > 1000 nM | GI50 (ACHN renal) > 1000 nM | GI50 (M14 melanoma) > 1000 nM | GI50 (NCI-H23 lung) > 100 µM | GI50 (SK-MEL-28 melanoma) > 1000 nM | GI50 (IGROV1 ovarian) > 1000 nM | GI50 (MALME-3M melanoma) > 100 µM | GI50 (UACC-257 melanoma) > 1000 nM | GI50 (SF-268 CNS) > 1000 nM | GI50 (OVCAR-4 ovarian) > 1000 nM | GI50 (OVCAR-5 ovarian) > 100 µM | GI50 (DMS 114 small cell lung) > 100 µM | GI50 (SK-MEL-5 melanoma) > 1000 nM | GI50 (LXFL 529 NSCLC) > 1000 nM | GI50 (UO-31 renal) > 1000 nM | GI50 (SK-MEL-2 melanoma) > 1000 nM | GI50 (SN12C renal) > 1000 nM | GI50 (NCI-H460 lung) > 1000 nM | GI50 (SNB-75 CNS) > 1000 nM | GI50 (DMS 273 small cell lung) > 1000 nM | GI50 (SK-OV-3 ovarian) > 1000 nM | GI50 (U251 CNS) > 1000 nM | GI50 (HCT-15 colon) > 1000 nM | GI50 (UACC-62 melanoma) > 1000 nM | GI50 (HCC-2998 colon) > 100 µM | GI50 (A549 NSCLC) > 1000 nM | GI50 (EKVX NSCLC) > 1000 nM | GI50 (SNB-19 CNS) > 1000 nM | GI50 (KM20L2 colon) > 1000 nM | GI50 (HOP-92 NSCLC) > 1000 nM | GI50 (OVCAR-3 ovarian) > 1000 nM | GI50 (786-0 renal) > 1000 nM | GI50 (K-562 leukemia) > 1000 nM | GI50 (SNB-78 CNS) > 1000 nM | GI50 (HT29 colon) > 1000 nM | GI50 (SR leukemia) > 1000 nM | GI50 (TK-10 renal) > 1000 nM | GI50 (NCI-H522 lung) > 1000 nM | GI50 (XF 498 CNS) > 1000 nM | GI50 (MOLT-4 leukemia) > 1000 nM | GI50 (M19-MEL melanoma) > 1000 nM | GI50 (NCI-H226 lung) > 1000 nM | GI50 (HL-60(TB) leukemia) > 1000 nM | GI50 (RPMI-8226 leukemia) > 100 µM | GI50 (COLO 205 colon) > 1000 nM | GI50 (HOP-62 NSCLC) > 1000 nM
> 54.9 µM: TGI (SNB-75 CNS)
> 25.9 µM: TGI (COLO 205 colon)
< 1000 nM: GI50 (SF-539 CNS)
> 46.4 µM: TGI (OVCAR-3 ovarian)
> 100 µM: TGI (LOX IMVI melanoma) | TGI (CCRF-CEM leukemia) | TGI (HCT-116 colon) | TGI (OVCAR-8 ovarian) | TGI (ACHN renal) | TGI (M14 melanoma) | TGI (NCI-H23 lung) | TGI (IGROV1 ovarian) | TGI (MALME-3M melanoma) | TGI (UACC-257 melanoma) | TGI (SF-268 CNS) | TGI (OVCAR-4 ovarian) | TGI (CAKI-1 renal) | TGI (DLD-1 colon) | TGI (OVCAR-5 ovarian) | TGI (DMS 114 small cell lung) | TGI (A498 renal) | TGI (SW-620 colon) | TGI (LXFL 529 NSCLC) | TGI (HOP-18 NSCLC) | TGI (SK-MEL-2 melanoma) | TGI (SN12C renal) | TGI (NCI-H460 lung) | TGI (KM12 colon) | TGI (DMS 273 small cell lung) | TGI (SK-OV-3 ovarian) | TGI (U251 CNS) | TGI (HCT-15 colon) | TGI (UACC-62 melanoma) | TGI (HCC-2998 colon) | TGI (A549 NSCLC) | TGI (EKVX NSCLC) | TGI (SNB-19 CNS) | TGI (KM20L2 colon) | TGI (SF-295 CNS) | TGI (786-0 renal) | TGI (K-562 leukemia) | TGI (SNB-78 CNS) | TGI (HT29 colon) | TGI (SR leukemia) | TGI (TK-10 renal) | TGI (XF 498 CNS) | TGI (RXF 393 renal) | TGI (MOLT-4 leukemia) | TGI (M19-MEL melanoma) | TGI (NCI-H226 lung) | TGI (HL-60(TB) leukemia) | TGI (RPMI-8226 leukemia)
> 1 µM: TGI (SK-MEL-28 melanoma) | TGI (SK-MEL-5 melanoma) | TGI (UO-31 renal) | TGI (SF-539 CNS) | TGI (HOP-92 NSCLC) | TGI (NCI-H522 lung)
> 76.2 µM: TGI (HOP-62 NSCLC)

O=C(O)CCC(=O)OCN1C(=O)C2C3C=CC(C2C1=O)C1C2C(=O)N(COC(=O)CCC(=O)O)C(=O)C2C31 (stereo not given)
> 63 µM: TGI (LOX IMVI melanoma)
> 67.9 µM: TGI (DMS 114 small cell lung)
> 54.3 µM: TGI (HCT-116 colon)
> 68.4 µM: TGI (SW-620 colon)
52.5 µM: TGI (RPMI-8226 leukemia)
> 100 µM: TGI (OVCAR-8 ovarian) | TGI (ACHN renal) | TGI (M14 melanoma) | TGI (NCI-H23 lung) | TGI (SK-MEL-28 melanoma) | TGI (IGROV1 ovarian) | TGI (MALME-3M melanoma) | TGI (UACC-257 melanoma) | TGI (SF-268 CNS) | TGI (OVCAR-4 ovarian) | TGI (CAKI-1 renal) | TGI (DLD-1 colon) | TGI (OVCAR-5 ovarian) | TGI (SK-MEL-5 melanoma) | TGI (A498 renal) | TGI (LXFL 529 NSCLC) | TGI (UO-31 renal) | TGI (HOP-18 NSCLC) | TGI (SK-MEL-2 melanoma) | TGI (SN12C renal) | TGI (KM12 colon) | TGI (SNB-75 CNS) | TGI (SK-OV-3 ovarian) | TGI (U251 CNS) | TGI (SF-539 CNS) | TGI (UACC-62 melanoma) | TGI (HCC-2998 colon) | TGI (A549 NSCLC) | TGI (EKVX NSCLC) | TGI (SNB-19 CNS) | TGI (KM20L2 colon) | TGI (SF-295 CNS) | TGI (HOP-92 NSCLC) | TGI (OVCAR-3 ovarian) | TGI (786-0 renal) | TGI (K-562 leukemia) | TGI (SNB-78 CNS) | TGI (HT29 colon) | TGI (TK-10 renal) | TGI (XF 498 CNS) | TGI (RXF 393 renal) | TGI (MOLT-4 leukemia) | TGI (M19-MEL melanoma) | TGI (NCI-H226 lung) | TGI (COLO 205 colon) | TGI (HOP-62 NSCLC)
> 58.2 µM: TGI (DMS 273 small cell lung)
46.7 µM: TGI (HL-60(TB) leukemia)
> 85.8 µM: TGI (NCI-H522 lung)
> 57 µM: TGI (HCT-15 colon)
52.4 µM: TGI (SR leukemia)
> 54.5 µM: TGI (NCI-H460 lung)
> 81.1 µM: TGI (CCRF-CEM leukemia)
